Results on 1 molecule are retold here after patent publication US20260137815A1, “DIAGNOSTIC AND TREATMENT METHODS FOR ONYCHOMYCOSIS” (ToeFX Inc., priority 2022, published 2026).

This experiment has as its system T. rubrum strain F4520. Description: UV-Visual absorption spectra of MB incubated with T. rubrum. As for the experimental part:
Referring to FIG. 5C, shown therein are UV-Visual absorption spectra of MB when incubated with T. rubrum. T. rubrum strain F4520 cubes were retrieved from −80° freezer, thawed at room temperature, and transferred to an Sabourand dextrose agar (SDA) plate, and distributed evenly on the SDA plate. The SDA plate was sealed by parafilm and moved into a 30° C. incubator until vigorous fungal growth was observed. Next, fungal mycelia were prepared, by transferring a 6.25 cm^2 culture from the SDA plate to a sterile blender cup and adding 200 mL sterile water. After 30 seconds of blending, varying amounts of blendate was pipetted into wells of a 96 well plate. […] The MB absorbance spectra was then measured by a photospectrometer.
The more dilute the fungus, the higher the MB absorbance value (i.e., normalized absorbance), indicating higher amounts of free MB in the solution.
A similar protocol was followed as described above for FIG. 5C, except that the concentration of T. rubrum in the solution was kept constant. MB absorbance was measured immediately (curve 502), 4 days (curve 504), and 7 days (curve 506) after mixing. Immediately after mixing, the MB absorbance peak is centered at ˜660 nm, corresponding to the absorption peak of MB alone in solution (see FIG. 5A). Over time, the intensity of the absorbance peak is lowered as MB is adsorbed to fungal cells, consistent with the curves in FIG. 5C.

As to `CN(C)c1ccc2nc3ccc(=[N+](C)C)cc-3sc2c1` [MB, Methylene Blue], the “MB absorbance (normalized) with increasing fungal concentration” value (0.01% v/v solution of MB, varying concentrations of T. rubrum) is listed as “lower MB absorbance is observed”. In addition, the “shift of MB absorbance peak over time” value (0.25% v/v solution of MB with T. rubrum culture, immediately, 4 days, 7 days after mixing) is reported as “observable blue-shifting of the MB absorbance peak over time”.
